According to patent US10253081B2, “Glucagon analogues” (Zealand Pharma A/S, priority 2012, dated 2019):
*1 amine or outer side, *2 acyl side, *3 side chain or, on linkers, in order; H or OH if unused. Where a SMILES comes first, the peptide text is derived from it. Side-chain parts run from the residue outwards. [ ]: non-standard residue; d: D form. The star is where a group is joined. γGlu = O=C(O)[C@H](CCC(=O)[*:2])N[*:1]; Palmitoyl = CCCCCCCCCCCCCCCC(=O)*; Aib = CC(C)(N)C(=O)O

Experiments:
Assay type in all cases: cell-based
[1] = molecular target: T1, endogenous GLP-1 receptors (Mus musculus, UniProt O35659); experiment: Agonistic activity on endogenous GLP-1 receptor (cAMP, murine insulinoma cell line); settings: intracellular cAMP, 15 minutes at 26° C.; read-out: EC50 GLP-1R (murine insulinoma cells)
T1 construct: Agonistic activity of the test compounds on endogenous GLP-1 receptors; endogenous in cells
T1 sequence (O35659 22-463): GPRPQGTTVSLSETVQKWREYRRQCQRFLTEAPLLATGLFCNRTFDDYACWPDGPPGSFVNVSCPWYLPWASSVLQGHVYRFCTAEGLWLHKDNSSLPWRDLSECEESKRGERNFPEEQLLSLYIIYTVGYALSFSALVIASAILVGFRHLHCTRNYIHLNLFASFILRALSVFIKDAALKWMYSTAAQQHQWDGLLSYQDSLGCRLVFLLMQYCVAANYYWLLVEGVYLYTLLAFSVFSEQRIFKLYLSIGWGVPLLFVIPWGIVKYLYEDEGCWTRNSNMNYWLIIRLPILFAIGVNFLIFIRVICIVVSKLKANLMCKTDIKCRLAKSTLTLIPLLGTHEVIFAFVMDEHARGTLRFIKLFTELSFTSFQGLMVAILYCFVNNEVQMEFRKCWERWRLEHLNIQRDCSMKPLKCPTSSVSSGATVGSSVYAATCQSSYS
Method: Agonistic activity of the test compounds on endogenous GLP-1 receptors was determined using a murine insulinoma cell line. Intracellular cAMP was used an indicator of receptor activation.
Cells were cultured for 24 h at a density of 10,000 cells/well in a 384-well plate. Medium was removed and 10 μL KRBH buffer (NaCl 130 mM, KCl 3.6 mM, NaH2PO4 0.5 mM, MgSO4 0.5 mM, CaCl2) 1.5 mM) containing test compound or GLP-1 (at increasing concentrations from […] to 100 nM) or solvent control (0.1% (v/v) DMSO) was added to the wells for 15 minutes at a temperature of 26° C.
The cellular cAMP content is measured using the AlphaScreen cAMP Functional Assay Kit (Perkin Elmer). Measurement was performed using the Envision (PerkinElmer) according to manufacturer's recommendations.
All measurements were performed in quadruplicate.
Results were converted into cAMP concentrations using a cAMP standard curve prepared in KRBH buffer containing 0.1% (v/v) DMSO. The resulting cAMP curves were plotted as absolute cAMP concentrations (nM) over log (test compound concentration) and analyzed using the curve fitting program XLfit.
Parameters calculated to describe the both the potency as well as the agonistic activity of each test compound on the endogenous GLP-1 receptors were:
pEC50 (negative logarithmic value of EC50, a concentration resulting in a half-maximal elevation of cAMP levels, reflecting the potency of the test compound);
Percent control (% CTL)(% cAMP elevation for each test compound concentration normalized based on the GLP-1-induced maximum cAMP response (100% CTL)).

[2] = molecular target: T2, human glucagon-like peptide 1 receptor (GLP-1R) (Homo sapiens, UniProt P43220); experiment: GLP-1 receptor efficacy assay (cAMP AlphaScreen, CHO cells); settings: Table 1B; for Ratio GLP-1/Glucagon: EC50 [GLP-1R]/EC50 [Glucagon-R]; for EC50: same protocol, different laboratory, read-out: EC50 hGLP-1R CHO-K1
T2 construct: expressed in transfected cells
From the text: (§1) The cDNA encoding either the human glucagon receptor (Glucagon-R) (primary accession number P47871) or the human glucagon-like peptide 1 receptor (GLP-1R) (primary accession number P43220) were synthesized and cloned into a mammalian expression vector containing a Zeocin resistance marker.
(§2) The mammalian expression vectors encoding the Glucagon-R or the GLP-1-R were transfected into Chinese hamster ovary (CHO) cells by the Attractene method method. Stably expressing clones were obtained by Zeocin selection (250 μg/mL) upon limited dilution of cells resistant to the selection pressure. Glucagon-R and GLP-1-R cell clones expressing were picked, propagated and tested in the Glucagon-R and GLP-1-R efficacy assays as described below. One Glucagon-R expressing clone and one GLP-1-R expressing clone were chosen for compound profiling.
(§3) CHO cells expressing the human Glucagon-R, or human GLP-1-R were seeded 24 hours prior to the assay at 30,000 cells per well in 96-well microtiter plates in culture in 100 μl growth medium. On the day of analysis, growth medium was removed and the cells were washed once with 200 μl of assay buffer (Krebs-Ringer-buffer—KRBH). The buffer was removed and the cells were incubated for 15 min at room temperature in 10 μl KRBH (KRBH+10 mM HEPES, 5 mM NaHCO3, 0.1% (V/V) BSA) with 0.1 mM IBMX in deionized water containing increasing concentrations of test peptides. The reaction was stopped by the addition of lysis buffer (0.1% w/v BSA, 5 mM HEPES, 0.3% v/v Tween-20). After cell lysis for 10 min at room temperature, lysates were transferred to 384-well plates and 10 μl of acceptor/donorbead mixture as contained in the AlphaScreen™ cAMP Functional Assay Kit was added. After one hour of incubation at room temperature in the dark, the cAMP content was determined applying the AlphaScreen™ cAMP Functional Assay Kit from Perkin-Elmer according to manufacturer instructions. EC50 and relative efficacies compared to reference compounds (glucagon and GLP-1) were calculated applying computer aided curve fitting. The GLP-1/glucagon ratio is calculated as defined earlier.

[3] = molecular target: T3, endogenous glucagon receptor (Rattus norvegicus, UniProt P30082); experiment: Agonistic activity on endogenous glucagon receptor (glycogen synthesis rate in primary rat hepatocytes); settings: inhibition of glycogen synthesis rate, 3 hours, read-out: EC50 GLP-1R Rat hepat.
T3 construct: Agonistic activity of the test compounds on endogenous glucagon receptor; endogenous in cells; host or cells: primary rat hepatocytes
Method: Agonistic activity of the test compounds on endogenous glucagon receptor was determined by measuring their effect on rate of glycogen synthesis in primary rat hepatocytes. Upon activation of the glucagon receptor, an inhibition of the glycogen synthesis rate is expected. Rate of glycogen synthesis was determined by counting the amount of radioactively labeled glucose incorporated into the cellular glycogen stores in a defined period of time.
Primary rat hepatocytes were cultured at a density of 40,000 cells/well in a 24-well plate for 24 hours at 37° C. and 5% CO2.
Medium was discarded and the cells washed with PBS. 180 μL of KRBH-based buffer containing 0.1% BSA and glucose at a concentration of 22.5 mM was then added to the wells, followed by test compound and 40 μCi/ml D-[U14C] glucose (20 μL each). Incubation was continued for 3 hours.
At the end of the incubation period, the incubation buffer was aspirated and cells washed once with ice-cold PBS before lysis by incubation for 30 min at room temperature with 100 μL 1 mol/l NaOH.
Cell lysates were transferred to 96-well filter plates and glycogen precipitated by incubating the filter-plates for 120 min at 4° C. followed by washing the filter plates 4 times with ice-cold ethanol (70%). The resulting precipitates were filtered to dryness and the amount of incorporated ^14C-glucose determined by using a Topcount scintillation counter according to manufacturer's recommendations.
Wells with vehicle controls (0.1% (v/v) DMSO in KRBH buffer) were included as reference for non-inhibited glycogen synthesis (100% CTL). Wells without added D-[U^14C] glucose were included as controls for non-specific background signal (subtracted from all values). Endogenous glucagon peptide was used as a positive control.
All treatments were performed at least in triplicates.
Parameters calculated to describe the both the potency as well as the agonistic activity of each test compound on the endogenous glucagon receptor are pEC50 and % CTL. % CTL is determined by calculating the percentage of CPM/well in the presence of the test compound compared to the CPM/well of the vehicle control after subtracting the background CPM/well: [CPM/well(basal)−CPM/well(sample)]*100/[CPM/well(basal)−CPM/well(control)]
An activator of the glucagon receptor will result in an inhibition of the glycogen synthesis rate and will give % CTL values between 0% CTL (complete inhibition) and 100% CTL (no observable inhibition).
The resulting activity curves were plotted as absolute counts (unit: cpm/sample) over log (test compound concentration) and analyzed using the curve fitting program XLfit.
pEC50 (negative logarithmic value of EC50) reflects the potency of the test compound.
The terms EC50 and pEC50 quoted in relation to GLP-1R activation could equally be regarded as IC50 and pIC50 in relation to glycogen synthesis.

[4] = molecular target: T4, human glucagon receptor (Glucagon-R) (Homo sapiens, UniProt P47871); experiment: Glucagon receptor efficacy assay (cAMP AlphaScreen, CHO cells); settings: Table 1B; same protocol, different laboratory; read-out: EC50 hGCGR CHO-K1
T4 construct: expressed in transfected cells
From the text: as §1, §2, §3

T3 sequence (P30082 27-485): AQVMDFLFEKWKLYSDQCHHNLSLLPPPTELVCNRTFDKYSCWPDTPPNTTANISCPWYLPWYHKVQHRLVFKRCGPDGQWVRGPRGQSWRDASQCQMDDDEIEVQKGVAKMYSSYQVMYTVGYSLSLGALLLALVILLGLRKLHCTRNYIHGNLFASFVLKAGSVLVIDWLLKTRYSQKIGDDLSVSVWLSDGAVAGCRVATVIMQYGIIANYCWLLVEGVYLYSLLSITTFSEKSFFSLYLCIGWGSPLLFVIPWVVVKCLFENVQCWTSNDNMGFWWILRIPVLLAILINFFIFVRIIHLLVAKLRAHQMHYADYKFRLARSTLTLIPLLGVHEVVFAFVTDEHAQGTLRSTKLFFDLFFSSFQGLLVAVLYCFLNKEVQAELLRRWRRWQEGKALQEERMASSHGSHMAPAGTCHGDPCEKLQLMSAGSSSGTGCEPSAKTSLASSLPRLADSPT
T4 sequence (P47871 26-477): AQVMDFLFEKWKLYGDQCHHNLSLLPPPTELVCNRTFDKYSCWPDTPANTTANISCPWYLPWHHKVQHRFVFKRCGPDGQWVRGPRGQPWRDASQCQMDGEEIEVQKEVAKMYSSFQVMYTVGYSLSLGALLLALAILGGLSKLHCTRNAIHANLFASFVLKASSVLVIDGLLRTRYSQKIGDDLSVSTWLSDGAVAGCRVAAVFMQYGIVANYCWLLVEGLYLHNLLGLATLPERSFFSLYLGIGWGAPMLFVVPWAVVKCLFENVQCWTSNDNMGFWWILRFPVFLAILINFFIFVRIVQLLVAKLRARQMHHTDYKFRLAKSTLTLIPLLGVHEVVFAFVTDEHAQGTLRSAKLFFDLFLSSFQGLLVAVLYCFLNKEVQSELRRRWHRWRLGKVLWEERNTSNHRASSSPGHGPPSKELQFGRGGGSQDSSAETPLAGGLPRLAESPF
T2 sequence (P43220 24-463): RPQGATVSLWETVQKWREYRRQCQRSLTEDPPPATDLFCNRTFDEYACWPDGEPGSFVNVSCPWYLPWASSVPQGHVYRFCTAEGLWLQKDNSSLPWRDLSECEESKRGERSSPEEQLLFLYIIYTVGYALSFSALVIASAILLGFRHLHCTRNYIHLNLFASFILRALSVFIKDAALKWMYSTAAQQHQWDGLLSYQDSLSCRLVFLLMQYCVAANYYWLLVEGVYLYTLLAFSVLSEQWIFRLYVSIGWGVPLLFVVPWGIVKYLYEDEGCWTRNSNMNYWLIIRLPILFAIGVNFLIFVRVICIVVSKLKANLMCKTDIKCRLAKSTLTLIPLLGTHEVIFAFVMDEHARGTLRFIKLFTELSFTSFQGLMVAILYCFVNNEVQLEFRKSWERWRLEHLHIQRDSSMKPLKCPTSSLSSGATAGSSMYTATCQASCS

| SMILES | EC50 [1] | Ratio GLP-1/Glucagon [2] | EC50 [2] | EC50 [3] | EC50 [4] |
| --- | --- | --- | --- | --- | --- |
| CCCCCCCCCCCCCCCC(=O)N[C@@H](CCC(=O)NCCCC[C@H](NC(=O)[C@H](CCC(=O)O)NC(=O)[C@H](CCC(=O)O)NC(=O)[C@H](CC(C)C)NC(=O)[C@H](Cc1ccc(O)cc1)NC(=O)[C@H](CCCCN)NC(=O)[C@H](CO)NC(=O)[C@H](Cc1ccc(O)cc1)NC(=O)[C@H](CC(=O)O)NC(=O)[C@H](CO)NC(=O)[C@@H](NC(=O)[C@H](Cc1ccccc1)NC(=O)[C@@H](NC(=O)CNC(=O)[C@H](CCC(N)=O)NC(=O)[C@H](CO)NC(=O)[C@@H](N)Cc1c[nH]cn1)[C@@H](C)O)[C@@H](C)O)C(=O)N[C@@H](C)C(=O)N[C@@H](C)C(=O)N[C@@H](CCCCN)C(=O)N[C@@H](CC(=O)O)C(=O)N[C@@H](Cc1ccccc1)C(=O)N[C@H](C(=O)N[C@@H](CCC(=O)O)C(=O)N[C@@H](Cc1c[nH]c2ccccc12)C(=O)N[C@@H](CC(C)C)C(=O)N[C@@H](CCC(=O)O)C(=O)N[C@@H](CO)C(=O)N[C@@H](C)C(N)=O)[C@@H](C)CC)C(=O)O [Compound 22, H-HSQGTFTSDYSKYLEE-K(Hexadecanoyl-isoGlu)-AAKDFIEWLESA-NH2] (H-HSQGTFTSDYSKYLEEK([γGlu-Palmitoyl])AAKDFIEWLESA-NH2) | 0.35 nM | 2.40 | 0.24 nM | 0.28 nM | 0.1 nM |
| CCCCCCCCCCCCCCCC(=O)N[C@@H](CCC(=O)NCCCC[C@H](NC(=O)[C@H](CO)NC(=O)[C@H](CCC(=O)O)NC(=O)[C@H](CC(C)C)NC(=O)[C@H](Cc1ccc(O)cc1)NC(=O)[C@H](CCCCN)NC(=O)[C@H](CO)NC(=O)[C@H](Cc1ccc(O)cc1)NC(=O)[C@H](CC(=O)O)NC(=O)[C@H](CO)NC(=O)[C@@H](NC(=O)[C@H](Cc1ccccc1)NC(=O)[C@@H](NC(=O)CNC(=O)[C@H](Cc1c[nH]cn1)NC(=O)C(C)(C)NC(=O)[C@@H](N)Cc1c[nH]cn1)[C@@H](C)O)[C@@H](C)O)C(=O)N[C@@H](C)C(=O)N[C@@H](C)C(=O)N[C@@H](CCC(=O)O)C(=O)N[C@@H](CCC(=O)O)C(=O)N[C@@H](Cc1ccccc1)C(=O)N[C@H](C(=O)N[C@@H](CCC(=O)O)C(=O)N[C@@H](Cc1c[nH]c2ccccc12)C(=O)N[C@@H](CC(C)C)C(=O)N[C@@H](CCC(=O)O)C(=O)N[C@@H](CO)C(=O)N[C@@H](C)C(=O)O)[C@@H](C)CC)C(=O)O [Compound 17, H-H-Aib-HGTFTSDYSKYLES-K(Hexadecanoyl-isoGlu)-AAEEFIEWLESA-OH] (H-H[Aib]HGTFTSDYSKYLESK([γGlu-Palmitoyl])AAEEFIEWLESA-OH) | 0.89 nM | 4.6 | 0.23 nM | 0.18 nM | 0.05 nM |
| CCCCCCCCCCCCCCCC(=O)N[C@@H](CCC(=O)NCCCC[C@H](NC(=O)[C@H](CCC(=O)O)NC(=O)[C@H](CCC(=O)O)NC(=O)[C@H](CC(C)C)NC(=O)[C@H](Cc1ccc(O)cc1)NC(=O)[C@H](CCCCN)NC(=O)[C@H](CO)NC(=O)[C@H](Cc1ccc(O)cc1)NC(=O)[C@H](CC(=O)O)NC(=O)[C@H](CO)NC(=O)[C@@H](NC(=O)[C@H](Cc1ccccc1)NC(=O)[C@@H](NC(=O)CNC(=O)[C@H](CCC(N)=O)NC(=O)C(C)(C)NC(=O)[C@@H](N)Cc1c[nH]cn1)[C@@H](C)O)[C@@H](C)O)C(=O)N[C@@H](C)C(=O)N[C@@H](C)C(=O)N[C@@H](CCCCN)C(=O)N[C@@H](CC(=O)O)C(=O)N[C@@H](Cc1ccccc1)C(=O)N[C@H](C(=O)N[C@@H](CCC(=O)O)C(=O)N[C@@H](Cc1c[nH]c2ccccc12)C(=O)N[C@@H](CC(C)C)C(=O)N[C@@H](CCC(=O)O)C(=O)N[C@@H](CO)C(=O)N[C@@H](C)C(N)=O)[C@@H](C)CC)C(=O)O [Compound 20, H-H-Aib-QGTFTSDYSKYLEE-K(Hexadecanoyl-isoGlu)-AAKDFIEWLESA-NH2] (H-H[Aib]QGTFTSDYSKYLEEK([γGlu-Palmitoyl])AAKDFIEWLESA-NH2) | 0.27 nM | 0.34 | 0.23 nM | 0.39 nM | 0.68 nM |
